Assay results reported in paper PMC8800111 (The Journal of Biological Chemistry, 2021).

What was measured:
Format in all cases: cell-based
[1] = target: proteins of U3A human fibrosarcoma cells (4462 proteins detected) (Homo sapiens, UniProt Q9BRA2); conditions: protein TXNDC17, U3A cells
[2] = target: proteins of U3A human fibrosarcoma cells (4462 proteins detected) (Homo sapiens, UniProt Q4VC31); conditions: protein CCDC58; U3A cells
[3] = target: proteins of U3A human fibrosarcoma cells (4462 proteins detected) (Homo sapiens, UniProt Q9Y3T9); conditions: protein NOC2L; soluble abundance after heat, U3A cells
[4] = target: proteins of U3A human fibrosarcoma cells (4462 proteins detected) (Homo sapiens, UniProt P07948); conditions: protein LYN; U3A cells
[5] = target: proteins of U3A human fibrosarcoma cells (4462 proteins detected) (Homo sapiens, UniProt Q96AC1); conditions: protein FERMT2; U3A cells
[6] = target: proteins of U3A human fibrosarcoma cells (4462 proteins detected) (Homo sapiens, UniProt O43683); conditions: protein BUB1; U3A cells
[7] = target: proteins of U3A human fibrosarcoma cells (4462 proteins detected) (Homo sapiens, UniProt Q9NZT2); conditions: protein OGFR, U3A cells
[8] = target: proteins of U3A human fibrosarcoma cells (4462 proteins detected) (Homo sapiens, UniProt O00391); conditions: protein QSOX1; U3A cells
[9] = target: proteins of U3A human fibrosarcoma cells (4462 proteins detected) (Homo sapiens, UniProt Q5VW36); conditions: protein FOCAD; U3A cells
[10] = target: proteins of U3A human fibrosarcoma cells (4462 proteins detected) (Homo sapiens, UniProt O60293); conditions: protein ZFC3H1; U3A cells
[11] = target: proteins of U3A human fibrosarcoma cells (4462 proteins detected) (Homo sapiens, UniProt O94992); conditions: protein HEXIM1, U3A cells
[12] = target: proteins of U3A human fibrosarcoma cells (4462 proteins detected) (Homo sapiens, UniProt P49247); conditions: protein RPIA, U3A cells
[13] = target: proteins of U3A human fibrosarcoma cells (4462 proteins detected) (Homo sapiens, UniProt Q99661); conditions: protein KIF2C; U3A cells
[14] = target: proteins of U3A human fibrosarcoma cells (4462 proteins detected) (Homo sapiens, UniProt Q00765); conditions: protein REEP5; U3A cells
[15] = target: proteins of U3A human fibrosarcoma cells (4462 proteins detected) (Homo sapiens, UniProt P62805); conditions: protein HIST1H4A; U3A, 10 μM, 2 h
[16] = target: proteins of U3A human fibrosarcoma cells (4462 proteins detected) (Homo sapiens, UniProt P23469); conditions: protein PTPRE; soluble abundance after heat, U3A cells
[17] = target: proteins of U3A human fibrosarcoma cells (4462 proteins detected) (Homo sapiens, UniProt Q969Z0); conditions: protein TBRG4; U3A cells
[18] = target: proteins of U3A human fibrosarcoma cells (4462 proteins detected) (Homo sapiens, UniProt P51114); conditions: protein FXR1; U3A cells
[19] = target: proteins of U3A human fibrosarcoma cells (4462 proteins detected) (Homo sapiens, UniProt P38432); conditions: protein COIL; soluble abundance after heat, U3A cells
[20] = target: proteins of U3A human fibrosarcoma cells (4462 proteins detected) (Homo sapiens, UniProt P78317); conditions: protein RNF4, U3A cells
[21] = target: proteins of U3A human fibrosarcoma cells (4462 proteins detected) (Homo sapiens, UniProt Q96SN8); conditions: protein CDK5RAP2; U3A, 10 μM, 2 h
[22] = target: proteins of U3A human fibrosarcoma cells (4462 proteins detected) (Homo sapiens, UniProt Q9Y2H0); conditions: protein DLGAP4, U3A cells
[23] = target: proteins of U3A human fibrosarcoma cells (4462 proteins detected) (Homo sapiens, UniProt P36776); conditions: protein LONP1; U3A cells
[24] = target: proteins of U3A human fibrosarcoma cells (4462 proteins detected) (Homo sapiens, UniProt P24666); conditions: protein ACP1, U3A cells
[25] = target: proteins of U3A human fibrosarcoma cells (4462 proteins detected) (Homo sapiens, UniProt O75396); conditions: protein SEC22B; U3A cells
[26] = target: proteins of U3A human fibrosarcoma cells (4462 proteins detected) (Homo sapiens, UniProt Q4J6C6); conditions: protein PREPL, U3A cells
[27] = target: proteins of U3A human fibrosarcoma cells (4462 proteins detected) (Homo sapiens, UniProt Q75QN2); conditions: protein INTS8; U3A cells
[28] = target: proteins of U3A human fibrosarcoma cells (4462 proteins detected) (Homo sapiens, UniProt Q9NQG5); conditions: protein RPRD1B; soluble abundance after heat, U3A cells
[29] = target: proteins of U3A human fibrosarcoma cells (4462 proteins detected) (Homo sapiens, UniProt O14965); conditions: protein AURKA; soluble abundance after heat, U3A cells
[30] = target: proteins of U3A human fibrosarcoma cells (4462 proteins detected) (Homo sapiens, UniProt Q6QNY1); conditions: protein BLOC1S2, U3A cells

proteins of U3A human fibrosarcoma cells (4462 proteins detected) (Homo sapiens, UniProt Q9NQG5), sequence (Q9NQG5 whole entry): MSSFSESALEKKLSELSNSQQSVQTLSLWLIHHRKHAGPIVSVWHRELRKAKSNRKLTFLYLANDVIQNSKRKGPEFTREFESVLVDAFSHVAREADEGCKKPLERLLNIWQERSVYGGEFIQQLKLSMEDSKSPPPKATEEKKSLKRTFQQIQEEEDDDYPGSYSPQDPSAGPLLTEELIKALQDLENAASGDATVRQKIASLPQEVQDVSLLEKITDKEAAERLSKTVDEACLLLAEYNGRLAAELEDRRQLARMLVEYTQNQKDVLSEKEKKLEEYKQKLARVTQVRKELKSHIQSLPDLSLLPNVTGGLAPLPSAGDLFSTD
proteins of U3A human fibrosarcoma cells (4462 proteins detected) (Homo sapiens, UniProt Q5VW36), sequence (Q5VW36 whole entry): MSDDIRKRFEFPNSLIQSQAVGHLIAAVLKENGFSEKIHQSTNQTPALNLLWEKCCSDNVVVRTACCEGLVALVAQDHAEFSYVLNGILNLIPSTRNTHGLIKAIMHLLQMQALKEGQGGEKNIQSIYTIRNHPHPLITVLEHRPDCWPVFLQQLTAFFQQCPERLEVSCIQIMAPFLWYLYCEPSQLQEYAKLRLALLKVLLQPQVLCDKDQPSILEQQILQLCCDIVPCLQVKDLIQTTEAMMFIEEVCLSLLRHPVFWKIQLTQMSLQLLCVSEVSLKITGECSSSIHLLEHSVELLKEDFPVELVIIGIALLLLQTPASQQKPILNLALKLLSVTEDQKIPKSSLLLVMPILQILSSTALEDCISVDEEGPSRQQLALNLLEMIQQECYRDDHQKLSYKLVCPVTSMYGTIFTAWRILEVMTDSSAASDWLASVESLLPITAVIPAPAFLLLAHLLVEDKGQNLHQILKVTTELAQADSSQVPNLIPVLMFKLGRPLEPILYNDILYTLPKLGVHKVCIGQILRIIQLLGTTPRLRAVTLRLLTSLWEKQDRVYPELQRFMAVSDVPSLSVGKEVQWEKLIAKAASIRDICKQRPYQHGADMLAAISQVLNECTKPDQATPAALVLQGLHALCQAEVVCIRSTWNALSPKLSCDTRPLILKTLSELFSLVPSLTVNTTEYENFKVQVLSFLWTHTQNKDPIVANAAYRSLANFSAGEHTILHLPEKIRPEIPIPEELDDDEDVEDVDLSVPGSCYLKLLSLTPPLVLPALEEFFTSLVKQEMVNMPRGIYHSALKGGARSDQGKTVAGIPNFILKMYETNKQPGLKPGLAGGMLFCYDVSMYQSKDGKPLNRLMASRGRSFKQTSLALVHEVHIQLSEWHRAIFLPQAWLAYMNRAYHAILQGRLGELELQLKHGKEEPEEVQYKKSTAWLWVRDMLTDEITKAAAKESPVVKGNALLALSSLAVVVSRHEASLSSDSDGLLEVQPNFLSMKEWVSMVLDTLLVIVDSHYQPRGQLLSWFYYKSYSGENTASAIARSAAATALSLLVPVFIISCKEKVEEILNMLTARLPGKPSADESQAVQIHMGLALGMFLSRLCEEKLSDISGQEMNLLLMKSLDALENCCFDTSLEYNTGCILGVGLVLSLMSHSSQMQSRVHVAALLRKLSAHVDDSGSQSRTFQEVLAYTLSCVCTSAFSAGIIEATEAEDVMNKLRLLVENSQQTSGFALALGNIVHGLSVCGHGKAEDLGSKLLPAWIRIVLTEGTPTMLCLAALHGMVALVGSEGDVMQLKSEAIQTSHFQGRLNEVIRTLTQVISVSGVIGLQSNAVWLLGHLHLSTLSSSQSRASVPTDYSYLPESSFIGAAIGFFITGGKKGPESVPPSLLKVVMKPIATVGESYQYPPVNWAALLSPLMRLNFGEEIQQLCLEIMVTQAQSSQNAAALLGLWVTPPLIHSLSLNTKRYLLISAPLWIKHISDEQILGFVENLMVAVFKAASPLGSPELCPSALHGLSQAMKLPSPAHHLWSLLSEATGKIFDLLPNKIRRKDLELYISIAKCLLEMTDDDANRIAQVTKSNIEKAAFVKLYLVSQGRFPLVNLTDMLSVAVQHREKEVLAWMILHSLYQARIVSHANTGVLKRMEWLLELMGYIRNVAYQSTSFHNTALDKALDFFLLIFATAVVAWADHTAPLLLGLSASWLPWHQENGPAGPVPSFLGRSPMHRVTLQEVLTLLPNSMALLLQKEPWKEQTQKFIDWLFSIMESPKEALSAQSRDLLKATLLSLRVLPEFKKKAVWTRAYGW
proteins of U3A human fibrosarcoma cells (4462 proteins detected) (Homo sapiens, UniProt P49247), sequence (P49247 whole entry): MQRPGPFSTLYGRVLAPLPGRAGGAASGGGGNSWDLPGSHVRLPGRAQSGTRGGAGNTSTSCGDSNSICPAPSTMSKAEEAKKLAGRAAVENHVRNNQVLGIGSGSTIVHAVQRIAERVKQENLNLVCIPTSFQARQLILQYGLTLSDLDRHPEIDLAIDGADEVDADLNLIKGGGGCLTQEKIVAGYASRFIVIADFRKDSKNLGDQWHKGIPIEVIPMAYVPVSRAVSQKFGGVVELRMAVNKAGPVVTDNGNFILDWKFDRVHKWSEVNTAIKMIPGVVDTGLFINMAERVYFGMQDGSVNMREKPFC
proteins of U3A human fibrosarcoma cells (4462 proteins detected) (Homo sapiens, UniProt Q9BRA2), sequence (Q9BRA2 whole entry): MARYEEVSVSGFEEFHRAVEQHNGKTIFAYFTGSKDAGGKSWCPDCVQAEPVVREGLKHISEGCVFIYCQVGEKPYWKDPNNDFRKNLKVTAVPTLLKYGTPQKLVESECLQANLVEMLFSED
proteins of U3A human fibrosarcoma cells (4462 proteins detected) (Homo sapiens, UniProt P51114), sequence (P51114 whole entry): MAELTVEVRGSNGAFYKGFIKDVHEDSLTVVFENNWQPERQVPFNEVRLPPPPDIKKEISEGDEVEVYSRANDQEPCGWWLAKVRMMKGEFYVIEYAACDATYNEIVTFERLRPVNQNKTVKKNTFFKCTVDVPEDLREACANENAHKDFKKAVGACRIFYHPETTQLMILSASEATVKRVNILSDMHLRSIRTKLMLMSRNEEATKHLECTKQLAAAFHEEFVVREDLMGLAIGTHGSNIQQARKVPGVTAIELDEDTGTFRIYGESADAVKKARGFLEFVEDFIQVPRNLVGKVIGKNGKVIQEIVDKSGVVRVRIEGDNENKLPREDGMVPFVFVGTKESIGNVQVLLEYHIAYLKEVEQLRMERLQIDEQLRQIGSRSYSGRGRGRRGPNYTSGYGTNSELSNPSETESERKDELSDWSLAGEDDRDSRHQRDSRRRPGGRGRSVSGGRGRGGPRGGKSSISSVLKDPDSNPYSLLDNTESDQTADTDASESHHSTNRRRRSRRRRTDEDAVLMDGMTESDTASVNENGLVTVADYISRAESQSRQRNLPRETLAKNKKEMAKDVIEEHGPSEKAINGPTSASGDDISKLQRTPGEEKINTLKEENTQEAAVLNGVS
proteins of U3A human fibrosarcoma cells (4462 proteins detected) (Homo sapiens, UniProt P24666), sequence (P24666 whole entry): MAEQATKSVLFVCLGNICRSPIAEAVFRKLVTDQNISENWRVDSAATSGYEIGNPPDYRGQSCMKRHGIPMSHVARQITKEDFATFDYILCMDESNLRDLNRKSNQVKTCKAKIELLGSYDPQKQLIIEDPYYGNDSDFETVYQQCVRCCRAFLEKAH
proteins of U3A human fibrosarcoma cells (4462 proteins detected) (Homo sapiens, UniProt P07948), sequence (P07948 whole entry): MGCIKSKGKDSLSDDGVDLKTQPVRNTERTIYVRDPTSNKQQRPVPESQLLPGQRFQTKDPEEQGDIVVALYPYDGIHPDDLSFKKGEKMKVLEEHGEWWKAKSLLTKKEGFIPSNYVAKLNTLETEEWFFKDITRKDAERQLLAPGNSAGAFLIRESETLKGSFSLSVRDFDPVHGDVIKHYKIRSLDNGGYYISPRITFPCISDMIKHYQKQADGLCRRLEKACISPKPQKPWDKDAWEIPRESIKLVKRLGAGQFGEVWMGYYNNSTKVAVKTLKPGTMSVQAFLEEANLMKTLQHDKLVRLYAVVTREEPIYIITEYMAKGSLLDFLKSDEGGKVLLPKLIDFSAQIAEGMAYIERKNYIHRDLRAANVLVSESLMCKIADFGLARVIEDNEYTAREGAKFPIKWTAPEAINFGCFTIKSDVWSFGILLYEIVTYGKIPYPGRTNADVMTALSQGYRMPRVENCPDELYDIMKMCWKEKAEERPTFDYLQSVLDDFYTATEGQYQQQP
proteins of U3A human fibrosarcoma cells (4462 proteins detected) (Homo sapiens, UniProt O94992), sequence (O94992 whole entry): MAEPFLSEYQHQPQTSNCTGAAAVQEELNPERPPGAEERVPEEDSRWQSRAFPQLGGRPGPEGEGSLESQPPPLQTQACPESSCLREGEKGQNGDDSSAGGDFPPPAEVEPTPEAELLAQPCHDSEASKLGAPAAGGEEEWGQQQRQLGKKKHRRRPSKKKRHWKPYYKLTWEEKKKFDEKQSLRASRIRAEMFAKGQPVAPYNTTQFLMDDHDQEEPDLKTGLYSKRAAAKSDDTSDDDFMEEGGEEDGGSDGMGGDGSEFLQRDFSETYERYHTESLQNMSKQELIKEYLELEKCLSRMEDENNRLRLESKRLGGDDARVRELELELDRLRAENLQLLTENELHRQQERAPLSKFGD
proteins of U3A human fibrosarcoma cells (4462 proteins detected) (Homo sapiens, UniProt Q4J6C6), sequence (Q4J6C6 whole entry): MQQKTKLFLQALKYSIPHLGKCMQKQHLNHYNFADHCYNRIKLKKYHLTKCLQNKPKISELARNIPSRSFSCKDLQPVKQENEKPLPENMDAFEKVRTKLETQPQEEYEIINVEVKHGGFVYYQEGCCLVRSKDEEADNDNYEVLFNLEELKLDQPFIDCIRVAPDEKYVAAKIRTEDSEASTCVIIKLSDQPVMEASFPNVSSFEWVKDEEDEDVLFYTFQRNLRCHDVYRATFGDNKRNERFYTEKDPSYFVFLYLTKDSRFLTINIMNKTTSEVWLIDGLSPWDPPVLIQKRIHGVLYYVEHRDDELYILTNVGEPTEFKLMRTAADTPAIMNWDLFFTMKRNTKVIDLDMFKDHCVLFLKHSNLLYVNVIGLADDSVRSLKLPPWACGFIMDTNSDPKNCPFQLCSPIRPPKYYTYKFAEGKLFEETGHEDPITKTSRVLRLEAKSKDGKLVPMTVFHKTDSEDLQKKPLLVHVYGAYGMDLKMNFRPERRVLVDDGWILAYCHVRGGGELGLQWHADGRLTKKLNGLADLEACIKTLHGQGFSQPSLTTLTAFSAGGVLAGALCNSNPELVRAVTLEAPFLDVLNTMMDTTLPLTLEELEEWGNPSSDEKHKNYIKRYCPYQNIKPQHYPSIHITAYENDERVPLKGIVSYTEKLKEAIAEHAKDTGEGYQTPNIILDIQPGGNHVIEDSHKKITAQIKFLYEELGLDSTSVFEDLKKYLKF

## CCc1nc(N)nc(N)c1-c1ccc(Cl)cc1 [pyrimethamine]
[1]
  Log2 (PYR/DMSO): -0.05
[2]
  Log2 (PYR/DMSO): 0.20
[3]
  Log2 (PYR/DMSO): 0.14
[4]
  Log2 (PYR/DMSO): 0.16
[5]
  Log2 (PYR/DMSO): 0.16
[6]
  Log2 (PYR/DMSO): 0.16
[7]
  Log2 (PYR/DMSO): -0.04
[8]
  Log2 (PYR/DMSO): 0.17
[9]
  Log2 (PYR/DMSO): 0.20
[10]
  Log2 (PYR/DMSO): 0.18
[11]
  Log2 (PYR/DMSO): -0.04
[12]
  Log2 (PYR/DMSO): -0.05
[13]
  Log2 (PYR/DMSO): 0.17
[14]
  Log2 (PYR/DMSO): 0.19
[15]
  Log2 (PYR/DMSO), HIST1H4A: 0.28
[16]
  Log2 (PYR/DMSO): 0.13
[17]
  Log2 (PYR/DMSO): 0.19
[18]
  Log2 (PYR/DMSO): 0.17
[19]
  Log2 (PYR/DMSO): 0.15
[20]
  Log2 (PYR/DMSO): -0.04
[21]
  Log2 (PYR/DMSO), CDK5RAP2: -0.21
[22]
  Log2 (PYR/DMSO): -0.04
[23]
  Log2 (PYR/DMSO): 0.22
[24]
  Log2 (PYR/DMSO): -0.04
[25]
  Log2 (PYR/DMSO): 0.21
[26]
  Log2 (PYR/DMSO): -0.04
[27]
  Log2 (PYR/DMSO): 0.18
[28]
  Log2 (PYR/DMSO): 0.15
[29]
  Log2 (PYR/DMSO): 0.15
[30]
  Log2 (PYR/DMSO): -0.04
